≈ marks a conversion by molar mass, not a printed value. Calls of active or inactive are those of the source. No cut-off for these calls is given here.
Experiments:
[1] = system: Escherichia coli; assay: Antibacterial activity against Escherichia coli ATCC 8739 incubated for 24 hrs by broth microdilution method; assay type: functional
[2] = system: Escherichia coli; assay: Ratio of MBC to MIC against Escherichia coli ATCC 8739 measured after 24 hrs; assay type: functional
[3] = system: Staphylococcus aureus; assay: Antibacterial activity against Staphylococcus aureus ATCC 6538P incubated for 24 hrs by broth microdilution method; assay type: functional
[4] = system: Staphylococcus aureus; assay: Ratio MBC to MIC against Staphylococcus aureus ATCC 6538P measured after 24 hrs; assay type: functional
[5] = system: Staphylococcus aureus; assay: Antibacterial activity against methicillin resistant Staphylococcus aureus ATCC 33591 incubated for 24 hrs by broth dilution method; assay type: functional
[6] = Hemolytic activity in rabbit RBC assessed as hemolysis rate at 10 times MIC incubated for 3 hrs by ultraviolet spectrophotometry analysis relative to control; assay type: toxicity, cell-based, Oryctolagus cuniculus, Erythrocyte; conditions: rabbit red blood cells (erythrocytes), read-out: Activity
[7] = system: Staphylococcus aureus; assay: Ratio MBC to MIC methicillin resistant Staphylococcus aureus ATCC 33591 measured after 24 hrs; assay type: functional
[8] = system: Staphylococcus aureus; assay: Potency index, ratio of norfloxacin MIC to test compound MIC for antibacterial activity against methicillin resistant Staphylococcus aureus ATCC 33591 incubated for 24 hrs by broth dilution method; assay type: functional
[9] = system: Staphylococcus aureus; assay: Induction of resistance development in methicillin resistant Staphylococcus aureus ATCC 33591 assessed as fold increase in MIC incubated for 24 hrs and measured at 10th generation relative to first generation; assay type: functional
[10] = system: Staphylococcus aureus; assay: Inhibition of biofilm formation in methicillin resistant Staphylococcus aureus ATCC 33591 at 0.25 times MIC incubated for 24 hrs by crystal violet staining based assay relative to control; assay type: functional
[11] = system: Staphylococcus aureus; assay: Inhibition of biofilm formation in methicillin resistant Staphylococcus aureus ATCC 33591 at 0.5 times MIC incubated for 24 hrs by crystal violet staining based assay relative to control; assay type: functional
[12] = system: Staphylococcus aureus; assay: Anti-biofilm activity against methicillin resistant Staphylococcus aureus ATCC 33591 assessed as biofilm eradication incubated for 24 hrs by crystal violet staining based assay; assay type: functional, organism-based
[13] = system: Staphylococcus aureus; assay: Anti-biofilm activity against methicillin resistant Staphylococcus aureus ATCC 33591 assessed as biofilm eradication at MIC incubated for 24 hrs by crystal violet staining based assay relative to control; assay type: functional
[14] = Hemolytic activity in rabbit RBC assessed as hemolysis rate at 2 times MIC incubated for 3 hrs by ultraviolet spectrophotometry analysis relative to control; assay type: toxicity, cell-based, Oryctolagus cuniculus, Erythrocyte; conditions: rabbit red blood cells (erythrocytes), read-out: Activity
[15] = Hemolytic activity in rabbit RBC assessed as hemolysis rate at 4 times MIC incubated for 3 hrs by ultraviolet spectrophotometry analysis relative to control; assay type: toxicity, cell-based, Oryctolagus cuniculus, Erythrocyte; conditions: rabbit red blood cells (erythrocytes), read-out: Activity
[16] = Hemolytic activity in rabbit RBC assessed as hemolysis rate at 6 times MIC incubated for 3 hrs by ultraviolet spectrophotometry analysis relative to control; assay type: toxicity, cell-based, Oryctolagus cuniculus, Erythrocyte; conditions: rabbit red blood cells (erythrocytes), read-out: Activity
[17] = Hemolytic activity in rabbit RBC assessed as hemolysis rate at 8 times MIC incubated for 3 hrs by ultraviolet spectrophotometry analysis relative to control; assay type: toxicity, cell-based, Oryctolagus cuniculus, Erythrocyte; conditions: rabbit red blood cells (erythrocytes), read-out: Activity
[18] = (§1) Inhibition of Escherichia coli ATCC 8739 UPPS using farnesyl pyrophosphate and isopentenyl pyrophosphate as a substrates preincubated for 30 min followed by EcPPA addition and measured after 30 min by malachite green dye based absorbance analysis
[19] = system: Escherichia coli; assay: as §1; conditions: time 60.0 min
[20] = system: Escherichia coli; assay: Noncompetitive inhibition of Escherichia coli ATCC 8739 UPPS using varying concentrations of farnesyl pyrophosphate as substrate assessed as decrease in Vmax with constant Km at 0 to 64 microg/mL incubated for 30 mins by Lineweaver-Burk plot analysis; conditions: dose 0-64 µg/ml
[21] = system: Staphylococcus aureus; assay: Bactericidal activity against methicillin resistant Staphylococcus aureus ATCC 33591 at 1 times MIC measured after 4 hrs by time kill assay; assay type: functional
[22] = system: Staphylococcus aureus; assay: Bactericidal activity against methicillin resistant Staphylococcus aureus ATCC 33591 at 2 to 4 times MIC measured after 2 hrs by time kill assay; assay type: functional
[23] = system: Staphylococcus aureus; assay: Bactericidal activity against methicillin resistant Staphylococcus aureus ATCC 33591 at 1 to 4 times MIC incubated for 24 hrs by time kill assay; assay type: functional, organism-based

SMILES | MIC [1] [µg/mL] | Ratio [2] | MIC [3] [µg/mL] | Ratio [4] | MIC [5] [µg/mL] | hemolysis at 3 h, 10 x MIC [6] [%] | Ratio [7] | Ratio [8] | other results
C/C(=N\NC(=N)N)c1sc(N/N=C/c2ccccc2O)nc1C | 64 (≈ 193 µM) | 1 | 32 (≈ 96.6 µM) | 1 | 64 (≈ 193 µM) | < 5 |  |  | 
C/C(=N\NC(=N)N)c1sc(N/N=C/c2cccc(F)c2F)nc1C | 64 (≈ 182 µM) | 2 | 16 (≈ 45.5 µM) | 2 | 16 (≈ 45.5 µM) | < 5 | 1 |  | 
C/C(=N\NC(=N)N)c1sc(N/N=C/c2cncs2)nc1C | 64 (≈ 198 µM) | 2 | 64 (≈ 198 µM) | >2 | 64 (≈ 198 µM) | < 5 | 2 |  | 
C/C(=N\NC(=N)N)c1sc(N/N=C/c2ccc(-c3cccs3)s2)nc1C | 8 (≈ 19.8 µM) | 1 | 2 (≈ 4.96 µM) | 2 | 8 (≈ 19.8 µM) | 3.3 | 1 | 8 | fold change (FC) [9]: 2; inhibition (INH) [10]: 44%; inhibition (INH) [11]: 59%; Activity [12]: Dose-Dependent Effect; Activity [13]: 70%; hemolysis at 3 h, 2 x MIC [14]: 2.6%; hemolysis at 3 h, 4 x MIC [15]: 2.1%; hemolysis at 3 h, 6 x MIC [16]: 1.7%; hemolysis at 3 h, 8 x MIC [17]: 1.3%; IC50 [18]: 145 µM; inhibition [19]: Dose-Dependent Effect; inhibition [20]: Dose-Dependent Effect; Activity [21]: 100%; Activity [22]: 100%
C/C(=N\NC(=N)N)c1sc(N/N=C/c2cc(O)cc(O)c2)nc1C | 32 (≈ 92.1 µM) | 1 | 32 (≈ 92.1 µM) | 1 | 64 (≈ 184 µM) | < 5 |  |  | 
C/C(=N\NC(=N)N)c1sc(N/N=C/c2ccccc2F)nc1C | 16 (≈ 48 µM) | 1 | 16 (≈ 48 µM) | 1 | 8 (≈ 24 µM) | < 5 |  | 8 | 
C/C(=N\NC(=N)N)c1sc(N/N=C/c2ccc(-c3ccc(C(F)(F)F)cc3)cc2)nc1C | 8 (≈ 17.4 µM) | 1 | 16 (≈ 34.8 µM) | 1 | 8 (≈ 17.4 µM) | < 5 |  | 8 | 
C/C(=N\NC(=N)N)c1sc(N/N=C/C=C/c2c(F)cccc2F)nc1C | 32 (≈ 84.8 µM) | 1 | 128 (≈ 339 µM) | 1 | 32 (≈ 84.8 µM) | < 5 |  |  | 
C/C(=N\NC(=N)N)c1sc(N/N=C/c2cc(F)ccc2F)nc1C | 16 (≈ 45.5 µM) | 1 | 8 (≈ 22.8 µM) | 1 | 8 (≈ 22.8 µM) | < 5 |  | 8 | 
C/C(=N\NC(=N)N)c1sc(N/N=C/c2ccc(O)cc2)nc1C | 64 (≈ 193 µM) | 1 | 32 (≈ 96.6 µM) | 2 | 128 (≈ 386 µM) | < 5 | >1 |  | 
COc1ccc(-c2ccc(/C=N/Nc3nc(C)c(/C(C)=N/NC(=N)N)s3)cc2)cc1 | 128 (≈ 304 µM) | >1 | 32 (≈ 75.9 µM) | >1 | 32 (≈ 75.9 µM) | < 5 | 1 |  | 
CCn1cc(C(=O)O)c(=O)c2cc(F)c(N3CCNCC3)cc21 [NORFLOXACIN] | 0.12 (≈ 0.376 µM) | >8 | 0.25 (≈ 0.783 µM) | 1 | 64 (≈ 200 µM) |  | >2 |  | Activity [23]: inactive; fold change (FC) [9]: 4
C/C(=N\NC(=N)N)c1sc(N/N=C/c2ccc(-c3ccc(F)cc3)cc2)nc1C | 16 (≈ 39.1 µM) | 4 | 4 (≈ 9.77 µM) | 1 | 4 (≈ 9.77 µM) | < 5 |  | 16 | 
C/C(=N\NC(=N)N)c1sc(N/N=C/c2ccc(N3CCCC3)cc2)nc1C | 32 (≈ 83.2 µM) | 4 | 32 (≈ 83.2 µM) | 1 | 32 (≈ 83.2 µM) | < 5 |  |  | 
C/C(=N\NC(=N)N)c1sc(N/N=C/c2cccc(O)c2)nc1C | 32 (≈ 96.6 µM) | 1 | 8 (≈ 24.1 µM) | 2 | 32 (≈ 96.6 µM) | < 5 | 1 |  | 
C/C(=N\NC(=N)N)c1sc(N/N=C/c2ccc(-n3cncn3)cc2)nc1C | > 128 |  | > 128 |  | > 128 | < 5 |  |  | 

Reference: ChEMBL document CHEMBL5335839, “Synthesis and structure-activity relationship of novel thiazole aminoguanidines against MRSA and Escherichia coli” (RSC Med Chem, 2024)
